Experimental data from patent US8138119B2, “Alkoxyalkyl spirocyclic tetramic acids and tetronic acids” (Bayer Cropscience AG, priority 2005, dated 2012).

Test: Determination of the log P values by HPLC on a reversed-phase column (C18)
Assay type: physicochemical
Protocol: The log P values given in the table were determined in accordance with EEC Directive 79/831 Annex V.A8 by HPLC (High Performance Liquid Chromatography) on a reversed-phase column (C18). Temperature: 43° C.
Mobile phases for the determination in the acidic range (pH 2.3): 0.1% aqueous phosphoric acid, acetonitrile; linear gradient from 10% acetonitrile to 90% acetonitrile
Calibration was carried out using unbranched alkan-2-ones (with 3 to 16 carbon atoms) whose log P values are known (determination of the log P values by the retention times using linear interpolation between two successive alkanones).

[1] = compounds of the formula (III), cis/trans isomer mixture, first value of the cell
[2] = compounds of the formula (III), cis/trans isomer mixture, second value of the cell
[3] = compounds of the formula (I-2-a), m.p. ° C./log P
[4] = HPLC reversed-phase column (C18), acidic range (pH 2.3), 43° C.

Row | SMILES | log P [1] | log P [2] | log P [3] | other results
1 | CCOC(=O)C1(OC(=O)Cc2c(C)cc(Cl)cc2C)CCCC(CCOC)C1 (mixture of isomers) [III-20] | 5.00 | 5.11 |  | 
2 | COCCC1CCC2(CC1)OC(=O)C(c1c(C)cc(Cl)cc1C)=C2O (stereo not drawn) [Example I-2-a-30] |  |  | oil/3.00 | 
3 | CCOC(=O)OC1=C(c2cc(-c3ccc(Cl)cc3)ccc2C)C(=O)OC12CCC(COC)CC2 (stereo not drawn) [Example I-2-c-2] |  |  |  | log P [4]: 4.95
4 | CCOC(=O)OC1=C(c2c(CC)cc(C)cc2CC)C(=O)OC12CCCC(CCOC)C2 (stereo not drawn) [Example I-2-c-3] |  |  |  | log P [4]: 4.97
5 | CCOC(=O)C1(OC(=O)Cc2c(C)cc(Cl)cc2C)CCC(CCOC)CC1 (mixture of isomers) [III-30] | 5.00 | 5.15 |  | 
6 | CCOC(=O)C1(OC(=O)Cc2c(CC)cc(C)cc2CC)CCCC(CCOC)C1 (mixture of isomers) [III-24] | 5.56 | 5.66 |  | 
7 | CCOC(=O)C1(OC(=O)Cc2c(C)cc(Br)cc2C)CCCC(COC)C1 (mixture of isomers) [III-3] | 4.94 | 5.05 |  | 
8 | CCOC(=O)C1(OC(=O)Cc2c(C)cc(Br)cc2C)CCC(CCOC)CC1 (mixture of isomers) [III-29] | 5.13 | 5.29 |  | 
9 | CCOC(=O)C1(OC(=O)Cc2c(C)cc(Br)cc2C)CCCC(CCOC)C1 (mixture of isomers) [III-19] | 5.13 | 5.26 |  | 
10 | CCc1cc(C)cc(CC)c1C1=C(O)C2(CCC(COC)CC2)OC1=O (stereo not drawn) [Example I-2-a-14] |  |  | oil/3.19 | 
11 | COCC1CCC2(CC1)OC(=O)C(c1cc(C)c(C)cc1C)=C2O (stereo not drawn) [Example I-2-a-11] |  |  | oil/2.72 | 
12 | CCc1cc(Br)cc(CC)c1C1=C(O)C2(CCCC(CCOC)C2)OC1=O (stereo not drawn) [Example I-2-a-23] |  |  | oil/3.63 | 
13 | CCOC(=O)C1(OC(=O)Cc2cc(-c3ccc(Cl)cc3)ccc2Cl)CCCC(CCOC)C1 (mixture of isomers) [III-26] | 5.67 | 5.82 |  | 
14 | CCOC(=O)C1(OC(=O)Cc2cc(C)c(-c3ccc(Cl)cc3)cc2C)CCC(COC)CC1 (mixture of isomers) [III-15] | 5.90 | 5.98 |  | 
15 | CCOC(=O)C1(OC(=O)Cc2c(C)cc(Cl)cc2C)CCC(COC)CC1 (mixture of isomers) [III-10] | 4.76 | 4.90 |  | 
16 | CCOC(=O)C1(OC(=O)Cc2cc(-c3ccc(Cl)cc3)ccc2C)CCCC(CCOC)C1 (mixture of isomers) [III-18] | 5.68 | 5.80 |  | 
17 | CCOC(=O)C1(OC(=O)Cc2cc(C)c(C)cc2C)CCCC(CCOC)C1 (mixture of isomers) [III-21] | 4.94 | 5.05 |  | 
18 | COCCC1CCCC2(C1)OC(=O)C(c1cc(-c3ccc(Cl)cc3)ccc1Cl)=C2O (stereo not drawn) [Example I-2-a-26] |  |  | oil/3.68 | 
19 | COCCC1CCCC2(C1)OC(=O)C(c1cc(C)c(-c3ccc(Cl)cc3)cc1C)=C2O (stereo not drawn) [Example I-2-a-25] |  |  | oil/4.03 | 
20 | COCC1CCCC2(C1)OC(=O)C(c1cc(C)c(C)cc1C)=C2O (stereo not drawn) [1-2-a-5] |  |  | oil/2.78 | 
21 | CCc1cc(Br)cc(CC)c1C1=C(O)C2(CCC(CCOC)CC2)OC1=O (stereo not drawn) [Example I-2-a-32] |  |  | oil/3.59 | 
22 | CCOC(=O)C1(OC(=O)Cc2cc(C)c(C)cc2C)CCC(CCOC)CC1 (mixture of isomers) [III-31] | 5.00 | 5.09 |  | 
23 | CCOC(=O)C1(OC(=O)Cc2cc(C)c(C)cc2C)CCCC(COC)C1 (mixture of isomers) [III-5] | 4.85 | 4.93 |  | 
24 | COCCC1CCC2(CC1)OC(=O)C(c1c(C)cc(C)cc1C)=C2OC(=O)C(C)C (stereo not drawn) [Example I-2-b-1] |  |  |  | chromatographic logP (reversed-phase HPLC column (C18), pH 2.3, HPLC reversed-phase column (C18), acidic range (pH 2.3), 43° C.): 4.79

Row | SMILES | log P [1] | log P [2] | log P [3] | other results
25 | COCCC1CCC2(CC1)OC(=O)C(c1cc(C)c(C)cc1C)=C2O (stereo not drawn) [Example I-2-a-31] |  |  | oil/2.92 | 
26 | CCOC(=O)C1(OC(=O)Cc2cc(-c3ccc(Cl)cc3)ccc2Cl)CCC(CCOC)CC1 (mixture of isomers) [III-35] | 5.70 | 5.85 |  | 
27 | CCOC(=O)C1(OC(=O)Cc2c(CC)cc(Br)cc2CC)CCCC(CCOC)C1 (mixture of isomers) [III-23] | 5.69 | 5.81 |  | 
28 | CCOC(=O)C1(OC(=O)Cc2c(C)cc(C)cc2C)CCCC(COC)C1 (mixture of isomers) [III-6] | 4.85 | 4.94 |  | 
29 | COCCC1CCCC2(C1)OC(=O)C(c1cc(-c3ccc(Cl)cc3)ccc1C)=C2O (stereo not drawn) [Example I-2-a-18] |  |  | oil/3.75 | 
30 | CCOC(=O)C1(OC(=O)Cc2c(C)ccc(-c3ccc(Cl)cc3)c2C)CCCC(CCOC)C1 (mixture of isomers) [III-27] | 6.02 | 6.09 |  | 
31 | COCCC1CCCC2(C1)OC(=O)C(c1c(C)cc(Cl)cc1C)=C2O (stereo not drawn) [Example I-2-a-20] |  |  | oil/3.03 | 
32 | CCc1cc(C)cc(CC)c1C1=C(O)C2(CCC(CCOC)CC2)OC1=O (stereo not drawn) [Example I-2-a-33] |  |  | oil/3.40 | 
33 | CCOC(=O)C1(OC(=O)Cc2c(C)cc(C)cc2C)CCCC(CCOC)C1 (mixture of isomers) [III-22] | 4.94 | 5.05 |  | 
34 | CCOC(=O)C1(OC(=O)Cc2c(CC)cc(Br)cc2CC)CCC(CCOC)CC1 (mixture of isomers) [III-32] | 5.75 | 5.90 |  | 
35 | COCCC1CCC2(CC1)OC(=O)C(c1cc(-c3ccc(Cl)cc3)ccc1Cl)=C2O (stereo not drawn) [Example I-2-a-35] |  |  | oil/3.67 | 
36 | COCCC1CCCC2(C1)OC(=O)C(c1c(C)cc(Br)cc1C)=C2O (stereo not drawn) [Example I-2-a-19] |  |  | oil/3.13 | 
37 | COCCC1CCC2(CC1)OC(=O)C(c1c(C)cc(Br)cc1C)=C2O (stereo not drawn) [Example I-2-a-29] |  |  | oil/3.10 | 
38 | CCOC(=O)C1(OC(=O)Cc2c(CC)cc(Br)cc2CC)CCC(COC)CC1 (mixture of isomers) [III-13] | 5.52 | 5.65 |  | 
39 | COCC1CCCC2(C1)OC(=O)C(c1cc(-c3ccc(Cl)cc3)ccc1C)=C2O (stereo not drawn) [Example I-2-a-2] |  |  | oil/3.58 | 
40 | COCCC1CCCC2(C1)OC(=O)C(c1c(C)cc(C)cc1C)=C2O (stereo not drawn) [Example I-2-a-22] |  |  | oil/2.94 | 
41 | COCCC1CCC2(CC1)OC(=O)C(c1cc(-c3ccc(Cl)cc3)ccc1C)=C2O (stereo not drawn) [Example I-2-a-28] |  |  | oil/3.71 | 
42 | CCOC(=O)C1(OC(=O)Cc2c(CC)cc(C)cc2CC)CCC(COC)CC1 (mixture of isomers) [III-14] | 5.39 | 5.51 |  | 
43 | CCOC(=O)C1(OC(=O)Cc2c(C)cc(Cl)cc2C)CCCC(COC)C1 (mixture of isomers) [III-4] | 4.82 | 4.93 |  | 
44 | CCOC(=O)C1(OC(=O)Cc2cc(-c3ccc(Cl)cc3)ccc2C)CCC(COC)CC1 (mixture of isomers) [III-8] | 5.36 | 5.49 |  | 
45 | CCOC(=O)C1(OC(=O)Cc2c(CC)cc(Br)cc2CC)CCCC(COC)C1 (mixture of isomers) [III-7] | 5.52 | 5.62 |  | 
46 | CCOC(=O)C1(OC(=O)Cc2cc(C)c(-c3ccc(Cl)cc3)cc2C)CCC(CCOC)CC1 (mixture of isomers) [III-34] | 6.14 | 6.19 |  | 
47 | CCc1cc(Br)cc(CC)c1C1=C(O)C2(CCC(COC)CC2)OC1=O (stereo not drawn) [Example I-2-a-13] |  |  | oil/3.38 | 
